Experimental data: US9981969B2, “Imidazole derivatives and methods of use thereof for improving the pharmacokinetics of a drug” (MERCK SHARP & DOHME CORP., priority 2013, dated 2018)
pIC50: −log10 of the molar value.

Legend:
human CYP11B2 = target: T1, human CYP11B2 (Homo sapiens, UniProt P19099); test: IC50 vs CYP11B2 by measurement of aldosterone synthesis in V79 cells; type: cell-based; settings: V79 cells expressing human CYP11B2, 750 nM DOC, aldosterone HTRF
T1 construct: expressed in transfected cells
T1 sequence (P19099 25-503): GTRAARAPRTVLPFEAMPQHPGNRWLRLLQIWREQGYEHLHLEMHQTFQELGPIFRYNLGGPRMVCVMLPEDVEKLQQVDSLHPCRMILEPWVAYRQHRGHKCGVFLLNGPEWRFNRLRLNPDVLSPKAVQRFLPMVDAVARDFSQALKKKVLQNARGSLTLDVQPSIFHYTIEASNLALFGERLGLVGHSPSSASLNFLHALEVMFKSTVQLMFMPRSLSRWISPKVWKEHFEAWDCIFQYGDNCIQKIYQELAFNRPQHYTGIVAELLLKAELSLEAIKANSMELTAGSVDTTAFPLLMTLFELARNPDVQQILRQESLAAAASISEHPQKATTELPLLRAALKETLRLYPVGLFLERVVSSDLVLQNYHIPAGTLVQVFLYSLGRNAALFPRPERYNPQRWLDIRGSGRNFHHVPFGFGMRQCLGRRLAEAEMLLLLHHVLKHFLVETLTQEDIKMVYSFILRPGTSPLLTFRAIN
Experimental: (§1) This assay was performed in a standard 384-well plate design using cultured V79 cells stably expressing human CYP11B1 or human CYP11B2. Test compounds at 10 concentrations (for example, 10000, 3333.3, 1111.1, 370.4, 123.5, 41.2, 13.7, 4.6, 1.5 and 0.5 nM) were added in 384-well plate after the cell-seeding procedure. The incubation substrate contains 1500 nM RSS for CYP11B1 assay/750 nM DOC for CYP11B2 assay. The Cortisol/Aldosterone production of cell culture supernatant was determined by Cortisol/Aldosterone HTRF kit after for about 15 hours incubation at RT (protect from light). IC50 (nM) values were calculated from the percent inhibition observed for each test compound at 10 concentrations.
(§2) The assay plate was read using Envision (Perkin Elmer, Waltham, Mass.) at 665 nm and 590 nm (using Filter Barcode of 217#, 205#; Mirror Barcode of 446#).
(§3) Data are analyzed using Assay Data Analyzer. All ratio data (665 nm/590 nm) are back calculated according to the standard curve, resulting in Cortisol/Aldosterone concentrations. IC50 (nM) values are reported as the Inflection Point (IP) of a four parameter fit of the titration data.
(§4) The following equation was used to calculate the % inhibition: % Activity=100×{1−(Sample_back calculated Cortisol/Aldosterone concentration−LC_back calculated Cortisol/Aldosterone concentration)/(HC_back calculated Cortisol/Aldosterone concentration−LC_back calculated Cortisol/Aldosterone concentration)} Curve Fitting: Four Parameter Logistic: […]

human CYP11B1 = target: T2, human CYP11B1 (Homo sapiens, UniProt P15538); test: IC50 vs CYP11B1 by measurement of cortisol synthesis in V79 cells; type: cell-based; settings: V79 cells expressing human CYP11B1, 1500 nM RSS, cortisol HTRF
T2 construct: expressed in transfected cells
T2 sequence (P15538 25-503): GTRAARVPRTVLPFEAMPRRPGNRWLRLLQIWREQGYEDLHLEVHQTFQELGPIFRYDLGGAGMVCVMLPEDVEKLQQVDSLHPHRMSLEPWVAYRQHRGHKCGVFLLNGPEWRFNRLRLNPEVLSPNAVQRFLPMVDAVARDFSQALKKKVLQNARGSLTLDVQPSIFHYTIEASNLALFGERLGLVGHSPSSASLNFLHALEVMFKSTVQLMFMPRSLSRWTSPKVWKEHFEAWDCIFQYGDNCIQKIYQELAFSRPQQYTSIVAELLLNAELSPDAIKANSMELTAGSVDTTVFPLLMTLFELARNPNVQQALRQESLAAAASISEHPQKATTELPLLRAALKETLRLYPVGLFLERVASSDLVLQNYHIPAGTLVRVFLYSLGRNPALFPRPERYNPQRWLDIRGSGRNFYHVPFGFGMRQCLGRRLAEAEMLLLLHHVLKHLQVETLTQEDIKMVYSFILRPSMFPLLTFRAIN
Experimental: as §1, §2, §3, §4

CYP2C19 = target: T3, CYP2C19 (Homo sapiens, UniProt P33261); test: Cocktail assay for CYPs in human liver microsomes, mephenytoin 4′-hydroxylation (2C19); type: biochemical; settings: 30 μM mephenytoin, 10 min at 37° C.
T3 construct: 0.1 mg/mL protein human liver microsomes (BD Gentest); tissue BD Gentest; host or cells: human liver microsomes
T3 sequence (P33261 whole entry): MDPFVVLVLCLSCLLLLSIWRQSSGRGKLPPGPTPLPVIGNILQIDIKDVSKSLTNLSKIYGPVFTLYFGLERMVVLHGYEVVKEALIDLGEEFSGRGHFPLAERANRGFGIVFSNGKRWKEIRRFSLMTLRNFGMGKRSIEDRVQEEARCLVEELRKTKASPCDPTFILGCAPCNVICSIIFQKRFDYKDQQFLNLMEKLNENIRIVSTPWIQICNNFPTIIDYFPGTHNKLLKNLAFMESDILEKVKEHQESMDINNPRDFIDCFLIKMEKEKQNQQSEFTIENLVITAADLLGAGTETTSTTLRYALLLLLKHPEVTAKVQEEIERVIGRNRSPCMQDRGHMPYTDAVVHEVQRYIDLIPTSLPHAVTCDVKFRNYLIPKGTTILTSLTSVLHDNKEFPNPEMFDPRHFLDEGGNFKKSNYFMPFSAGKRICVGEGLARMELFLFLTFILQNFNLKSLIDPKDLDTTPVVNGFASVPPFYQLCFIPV
Experimental: (§5) This assay was performed in a standard 96-well plate design. IC50 values were calculated from the percent inhibition observed for each test compound at 6 concentrations (for example, 0.0032, 0.016, 0.08, 0.4, 2 and 10 μM). The incubation substrate mix contains 10 μM phenacetin (1A2), 5 μM diclofenac (2C9), 30 μM mephenytoin (2C19), 5 μM dextromethorphan (2D6) and 2 μM midazolam (3A4), 0.1 mg/mL protein human liver microsomes (BD Gentest), 1 mM NAPDH, 3.3 mM MgCl2 and 100 mM potassium phosphate buffer (pH 7.4). The production of the metabolite of each probe substrate was determined after incubation for 10 min at 37° C. Quantitation of the metabolite peak area ratio against an internal standard (tolbutamide) was determined by LC/MS/MS analysis following acetonitrile treatment of the incubations.
(§6) Samples were analyzed in the MRM mode with a SCIEX API-4000 mass spectrometer (Applied Biosystems, Foster City, Calif.), with a Shimadzu LC-20 AD pump (Shimadzu corporation, Kyoto, JP) and a CTC PAL autosampler (Agilent Technologies, Switzerland). A Phenomenex, Luna, 5 μm, 100A, 2.00×30 mm HPLC column was used for the separation. The mobile phases were: (A) 0.1% formic acid in water and (B) 0.1% formic acid in acetonitrile. The binary gradient was as follows. AutoSampler: CTC PAL
(§7) The peak area ratio of the analyte to the internal standard was used to quantify the metabolite. The values of peak area ratios in the presence of test compound were compared to those of maximum or minimum controls and were expressed as % inhibition by interpolating between the maximum and minimum peak area ratios. Incubations with no inhibitor were defined as the maxima. The following equation was used to calculate the % inhibition: [1−[(X−Low control)/(High control−Low control)]]*100 For the IC50 calculation, SigmaPlot was used to plot the mean % inhibition versus the test compound concentrations and for non-linear regression analysis of the data. Depending on the range of data points defining the inhibition curve, the data may have been fit to the 4-parameter logistic equation.

CYP3A4 = target: T4, CYP3A4 (Homo sapiens, UniProt P08684); test: Cocktail assay for CYPs in human liver microsomes, midazolam 1′-hydroxylation (3A4); type: biochemical; settings: 2 μM midazolam, 10 min at 37° C.
T4 construct: 0.1 mg/mL protein human liver microsomes (BD Gentest); tissue BD Gentest; host or cells: human liver microsomes
T4 sequence (P08684 whole entry): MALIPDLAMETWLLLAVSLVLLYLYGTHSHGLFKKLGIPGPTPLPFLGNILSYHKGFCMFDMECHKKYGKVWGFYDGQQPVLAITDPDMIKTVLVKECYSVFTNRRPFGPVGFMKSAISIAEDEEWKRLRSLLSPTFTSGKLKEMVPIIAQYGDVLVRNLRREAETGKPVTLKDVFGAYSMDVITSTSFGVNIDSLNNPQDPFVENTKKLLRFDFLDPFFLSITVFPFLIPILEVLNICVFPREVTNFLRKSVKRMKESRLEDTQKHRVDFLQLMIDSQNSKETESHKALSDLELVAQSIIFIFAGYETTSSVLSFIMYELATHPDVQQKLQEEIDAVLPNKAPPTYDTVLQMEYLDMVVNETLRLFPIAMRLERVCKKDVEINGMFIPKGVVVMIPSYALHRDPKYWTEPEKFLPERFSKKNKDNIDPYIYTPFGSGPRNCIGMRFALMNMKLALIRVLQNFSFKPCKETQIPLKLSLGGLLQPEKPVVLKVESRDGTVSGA
Experimental: as §5, §6, §7

CYP2D6 = target: T5, CYP2D6 (Homo sapiens, UniProt P10635); test: Cocktail assay for CYPs in human liver microsomes, dextromethorphan O-demethylation (2D6); type: biochemical; settings: 5 μM dextromethorphan, 10 min at 37° C.
T5 construct: 0.1 mg/mL protein human liver microsomes (BD Gentest); tissue BD Gentest; host or cells: human liver microsomes
T5 sequence (P10635 whole entry): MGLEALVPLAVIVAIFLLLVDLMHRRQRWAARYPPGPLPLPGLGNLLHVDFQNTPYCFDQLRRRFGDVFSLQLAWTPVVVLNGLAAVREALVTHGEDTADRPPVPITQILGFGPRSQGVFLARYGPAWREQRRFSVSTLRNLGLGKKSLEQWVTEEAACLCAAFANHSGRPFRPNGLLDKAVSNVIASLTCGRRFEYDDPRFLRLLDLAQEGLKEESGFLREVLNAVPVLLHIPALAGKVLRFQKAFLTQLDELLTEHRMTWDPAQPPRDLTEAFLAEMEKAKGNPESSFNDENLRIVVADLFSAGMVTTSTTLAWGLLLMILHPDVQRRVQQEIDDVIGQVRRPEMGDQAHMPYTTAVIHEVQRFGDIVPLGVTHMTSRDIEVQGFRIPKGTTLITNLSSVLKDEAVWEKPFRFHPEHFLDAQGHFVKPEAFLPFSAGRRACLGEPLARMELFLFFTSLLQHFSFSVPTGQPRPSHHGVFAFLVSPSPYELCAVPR
Experimental: as §5, §6, §7

CYP1A2 = target: T6, CYP1A2 (Homo sapiens, UniProt P05177); test: Cocktail assay for CYPs in human liver microsomes, phenacetin O-deethylation (1A2); type: biochemical; settings: 10 μM phenacetin, 10 min at 37° C.
T6 construct: 0.1 mg/mL protein human liver microsomes (BD Gentest); tissue BD Gentest; host or cells: human liver microsomes
T6 sequence (P05177 1-516): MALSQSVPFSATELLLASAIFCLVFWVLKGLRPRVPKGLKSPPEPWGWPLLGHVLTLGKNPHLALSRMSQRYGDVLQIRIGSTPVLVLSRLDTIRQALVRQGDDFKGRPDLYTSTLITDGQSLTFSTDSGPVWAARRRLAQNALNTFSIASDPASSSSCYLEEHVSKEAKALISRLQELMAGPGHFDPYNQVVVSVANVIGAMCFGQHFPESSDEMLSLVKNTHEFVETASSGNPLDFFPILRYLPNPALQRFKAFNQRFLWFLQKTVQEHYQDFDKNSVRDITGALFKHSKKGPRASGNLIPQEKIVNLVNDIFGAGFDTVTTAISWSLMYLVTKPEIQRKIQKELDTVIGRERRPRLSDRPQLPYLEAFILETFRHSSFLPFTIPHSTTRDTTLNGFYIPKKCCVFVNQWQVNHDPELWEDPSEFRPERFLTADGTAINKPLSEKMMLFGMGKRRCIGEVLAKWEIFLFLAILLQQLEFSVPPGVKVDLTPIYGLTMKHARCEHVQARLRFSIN
Experimental: as §5, §6, §7

CYP2C9 = target: T7, CYP2C9 (Homo sapiens, UniProt P11712); test: Cocktail assay for CYPs in human liver microsomes, diclofenac 4′-hydroxylation (2C9); type: biochemical; settings: 5 μM diclofenac, 10 min at 37° C.
T7 construct: 0.1 mg/mL protein human liver microsomes (BD Gentest); tissue BD Gentest; host or cells: human liver microsomes
T7 sequence (P11712 whole entry): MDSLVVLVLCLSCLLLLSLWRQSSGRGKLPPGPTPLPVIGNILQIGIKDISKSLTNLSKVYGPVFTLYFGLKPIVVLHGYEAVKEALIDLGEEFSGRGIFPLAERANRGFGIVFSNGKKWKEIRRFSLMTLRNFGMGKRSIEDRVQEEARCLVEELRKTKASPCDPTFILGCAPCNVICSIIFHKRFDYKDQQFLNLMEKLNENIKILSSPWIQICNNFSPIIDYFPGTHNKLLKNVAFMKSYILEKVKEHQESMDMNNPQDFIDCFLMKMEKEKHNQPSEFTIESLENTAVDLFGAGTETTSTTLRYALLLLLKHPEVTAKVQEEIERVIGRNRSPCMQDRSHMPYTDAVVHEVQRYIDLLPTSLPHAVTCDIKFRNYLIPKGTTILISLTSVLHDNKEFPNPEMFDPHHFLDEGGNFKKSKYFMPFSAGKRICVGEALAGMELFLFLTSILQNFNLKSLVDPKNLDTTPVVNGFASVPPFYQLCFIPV
Experimental: as §5, §6, §7

Compound	pIC50 (human CYP11B2)	pIC50 (human CYP11B1)	pIC50 (CYP2C19)	pIC50 (CYP3A4)	pIC50 (CYP2D6)	pIC50 (CYP1A2)	pIC50 (CYP2C9)
C[C@@H](c1ccccc1-c1ccc(F)cc1)n1cncc1C(=O)N1CCC(N2CCNC(=O)C2)CC1 [Compound 20]	4.51	4.77	< 5.00	8.35	< 5.00	< 5.00	< 5.00
C[C@@H](c1ccccc1-c1ccc(F)cc1)n1cncc1C(=O)N1CCC(N2CCNC(=O)CC2)CC1 [Compound 21]	< 4.30	< 4.30	< 5.00	8.17	< 5.00	< 5.00	< 5.00
CO[C@H]1CN(C2CCN(C(=O)c3cncn3[C@@H](C)c3ccccc3-c3ccc(F)cc3)CC2)C[C@@H]1O [Compound 22]	< 4.30	4.67	< 5.00	8.40	5.01	< 5.00	< 5.00
CO[C@@H]1CN(C2CCN(C(=O)c3cncn3[C@@H](C)c3ccccc3-c3ccc(F)cc3)CC2)C[C@H]1O [Compound 23]	< 4.30	4.58	< 5.00	8.47	5.01	< 5.00	< 5.00
C[C@@H](c1ccccc1-c1ccc(F)cc1)n1cncc1C(=O)N1CCC(NC2COC[C@H]2O)CC1 (stereo partly drawn) [Compound 24]	< 4.30	< 4.30	< 5.00	8.24	< 5.00	< 5.00	< 5.00
C[C@@H](c1ccccc1-c1ccc(F)cc1)n1cncc1C(=O)N1CCC(NC2CCC(O)CC2)CC1 (stereo partly drawn) [Compound 25]	< 4.30	< 4.30	< 5.00	8.04	5.23	< 5.00	< 5.00
C[C@@H](c1ccccc1-c1ccc(F)cc1)n1cncc1C(=O)N1CCC(N2CCn3c(nnc3C(F)(F)F)C2)CC1 [Compound 26]	< 4.30	4.84	5.20	8.19	≤ 5.00	< 5.00	< 5.00
C[C@@H](c1ccccc1-c1ccc(F)cc1)n1cncc1C(=O)N1CCC(N2CCn3ncnc3C2)CC1 [Compound 27]	4.62	4.95	< 5.00	8.24	< 5.00	< 5.00	< 5.00
C[C@@H](c1ccccc1-c1ccc(F)cc1)n1cncc1C(=O)N1CCC(N2CCc3nccnc3C2)CC1 [Compound 28]	< 4.30	4.83	< 5.00	8.27	< 5.00	< 5.00	< 5.00
C[C@@H](c1ccccc1-c1ccc(F)cc1)n1cncc1C(=O)N1CC[C@@H](N2CCOCC2)[C@@H](F)C1 [Compound 29]	< 4.30	4.66	< 5.00	8.20	5.21	< 5.00	< 5.00
C[C@@H](c1ccccc1-c1ccc(F)cc1)n1cncc1C(=O)N1CC[C@@H](N2CCNC(=O)C2)[C@@H](F)C1 [Compound 30]	4.38	< 4.30	< 5.00	8.24	< 5.00	< 5.00	< 5.00
C[C@H]1CN(C(=O)c2cncn2[C@@H](C)c2ccccc2-c2ccc(F)cc2)CC[C@H]1N1CCNC(=O)C1 [Compound 31]	< 4.30	4.55	< 5.00	8.01	5.02	< 5.00	< 5.00
